According to patent US12582784B2, “Dry powder inhalation system” (MannKind Corporation, priority 2008, dated 2026):

Assays:
[1] = Baseline-corrected glucose infusion rate (GIR) evaluation under hyperinsulinemic-euglycemic clamp; assay type: in vivo, human (subjects with type 1 diabetes mellitus); details: 10 IU sc RAA
Method: A phase I, open-label, single-dose, repeat administration study in subjects with type 1 diabetes (T1DM) was conducted to assess the pharmacokinetic profile or PK of 30 U of insulin-FDKP dosed as a single 30 U cartridge and compared to two 15 U cartridges administered with the present inhalation system. A 10 U subcutaneous injection of the rapid acting insulin analogue (RAA, HUMALOG® (Eli Lilly and Company, Indianapolis, IN)) was also tested. Subjects (age: 19-61 yrs) were randomized to 1 of 6 sequences. Fasted subjects received insulin-FDKP or RAA 4 to 6 hrs after initiating a hyperinsulinemic-euglycemic clamp. Randomization determined the order of insulin-FDKP dosing (first 2 treatment (tx) visits), and the location of the RAA injection (abdomen, arm or leg; 3rd tx visit). After dosing blood samples were taken and analyzed for insulin, insulin lispro and fumaryl diketopiperazine (FDKP (insulin-FDKP tx only)). When studying insulin-FDKP, the basal insulin infusion was performed with HUMALOG®, and when studying HUMALOG®, regular human insulin was used. The analytical methodologies enabled the independent measurement of each insulin tested.
This study also evaluated the effects of the dosages administered and the glucose infusion rate (GIR) requirements of the patients in the study. FIG. 19 illustrates the results of the GIR evaluation. […]

[2] = design: species or system human (subjects with type 1 diabetes mellitus); details: human, in vivo, sc
Method: The study was conducted in subjects with type 1 diabetes mellitus. This study was conducted to determine if a formulation for pulmonary delivery comprising insulin and a diketopiperazine in the formulation, 1) could be delivered consistently using different dosage strengths and 2) if linearity of dosing could be achieved with proportional doses, given that interchangeability of dosage strengths can be important for patient safety. […] Therefore, an important goal in the development of the pulmonary delivery system with a formulation comprising insulin and FDKP (insulin-FDKP) was to achieve dose linearity across the therapeutic dose range.
In the study, comparisons of insulin exposure following inhalation of two 15 U cartridges of an insulin inhalation powder to one 30 U cartridge of insulin inhalation powder were made. In addition, insulin bioavailability from a 30 U cartridge of insulin-FDKP inhalation powder was calculated, compared to a 10-IU subcutaneous (sc) injection of insulin lispro (rapid acting analogue [RAA]).
A phase I, open-label, single-dose, repeat administration study in subjects with type 1 diabetes (T1DM) was conducted to assess the pharmacokinetic profile or PK of 30 U of insulin-FDKP dosed as a single 30 U cartridge and compared to two 15 U cartridges administered with the present inhalation system. […]

insulin lispro [Humalog]
time after administration at which GIR peaked [1]: approximately 150 minutes | time at which GIR returned toward baseline [1]: ~300 min | Insulin PK parameters tmax [2]: 1 h
